≈ marks a conversion by molar mass, not a printed value.
Columns and labels:
HL60 tumor cells = assay: Orthotopic HL60 AML xenograft model; assay type: in vivo, NOD/SCID mice; settings: 1 mg/kg, day 23 after inoculation
Method: Orthotopically engrafted HL60 tumor-bearing mice were treated with unconjugated C0 (1 mg/Kg) antibody and control ADC (3 mg/Kg) as compared with mice treated with C6-CLT-D202-ADC (3 mg/Kg). The percentage of human HL60 tumor cells in the bone marrow (left panel) and in the peripheral blood (right panel) is shown, the median bar and interquartile error bars are denoted for N=4-6 mice. The table (bottom) indicates the median, minimum, maximum, and interquartile percentage of human HL60 cells in the bone marrow and peripheral blood of treated mice.
Female 6-8 week-old NOD/SCID mice were sub-lethally irradiated with 2.5 Gy, and 5 million HL60 tumors were injected intravenously at one day post-irradiation into the mice. Following 6 days of tumor cell inoculation (˜0.1-1% engraftment in the bone marrow), mice were dosed 3 times, and once per week (q7DX3) with 3 mg/Kg of C6-CLT-D202 ADC or with the same amount of control C0-ADC. Following 23 days of tumor cell inoculation, bone, spleen, and peripheral blood were collected from the treated mice and total hematopoietic cells were isolated. The percentage of human cells in these tissues was determined by flow cytometry using anti-human CD33 and CD45 antibodies. Data were analyzed by Flowjo software, and plotted with Prism software.
Greater than 90% Tumor Growth Inhibition (TGI) was observed after administration with C6-CLT-D202 ADC.

HNT-34 = assay: Growth inhibition by payloads, CellTiter-Glo cell viability; assay type: cell-based; settings: MDR +/−
Method: (§1) The cytotoxicity of the compounds was evaluated using the CellTiter-Glo Luminescent Cell Viability Assay (Promega Cat # G7573) as described in the manufacturer's instructions (Arduengo, M., Cell Notes, 2003, 5:15-17). This assay contains a reagent that lyses cells and generates a “glow-type” luminescent signal proportional to the amount of adenosine triphosphate (ATP) present, which is a measure of cell growth.
(§2) Cells were seeded at 1000 cells per well in 50 μL of culture media into tissue culture 96-well flat-bottom plates. The perimeter wells of the plate were not used and 200 μL of media was added to the perimeter wells to prevent evaporation during incubation. 50 μL of the compound tested at twice the final concentration were then added to the wells in triplicate. Plates were incubated at 37° C., 5% CO2 for 72 hours before adding 100 μL CellTiter-Glo reagent to each well (excluding perimeter wells). Plates were then incubated at room temperature on a shaker for 10 minutes. After incubation, 100 μL of the supernatants were transferred to a solid white 96-well plate and luminescence was measured with a spectrophotometer. Percent viability was calculated based on untreated control: % viability=(treated/untreated)*100.
(§3) GI50: Concentration of compound required for 50% cell growth inhibition.
(§4) The cytotoxic activity of compounds CLT-D201, CLT-D501, CLT-D601 was tested against various cell lines in comparison with a pyrrolobenzodiazepine dimer labeled as PBD1 (structurally identical to SGD-1882, Spirogen Ltd.), having a formula: […]

HL-60 = assay: as above; assay type: cell-based; settings: Homo sapiens, MDR −
Method: as §1, §2, §3, §4

TF-1 = assay: as above; assay type: cell-based; settings: Homo sapiens, MDR +
Method: as §1, §2, §3, §4

HEL92.1.7 = assay: as above; assay type: cell-based; settings: Homo sapiens, HEL 92.1.7, MDR +
Method: as §1, §2, §3, §4

SHI = assay: as above; assay type: cell-based; settings: MDR −
Method: as §1, §2, §3, §4

THP-1 = assay: as above; assay type: cell-based; settings: Homo sapiens, MDR −
Method: as §1, §2, §3, §4

OCI-AML5 = assay: as above; assay type: cell-based; settings: Homo sapiens, OCI-AML-5, MDR NA
Method: as §1, §2, §3, §4

KG1 = assay: as above; assay type: cell-based; settings: Homo sapiens, KG-1, MDR +
Method: as §1, §2, §3, §4

Compound	percentage of human HL60 cells, 25% Percentile (HL60 tumor cells; Blood)	percentage of human HL60 cells, 75% Percentile (HL60 tumor cells; Blood)	percentage of human HL60 cells, Median (HL60 tumor cells; Blood)	percentage of human HL60 cells, Minimum (HL60 tumor cells; Blood)	percentage of human HL60 cells, 25% Percentile (HL60 tumor cells; Bone marrow)	percentage of human HL60 cells, 75% Percentile (HL60 tumor cells; Bone marrow)	percentage of human HL60 cells, Median (HL60 tumor cells; Bone marrow)	percentage of human HL60 cells, Minimum (HL60 tumor cells; Bone marrow)	IC50 (HNT-34)	IC50 (HL-60)	IC50 (TF-1)	IC50 (HEL92.1.7)	IC50 (SHI)	IC50 (THP-1)	IC50 (OCI-AML5)	IC50 (KG1)
Palivizumab [C0]	36.025%	68.1%	56.5%	30.4%	60.85%	85.8%	72.95%	55.9%	–	–	–	–	–	–	–	–
COc1ccc(C2=CN3C(=O)c4cc(OC)c(OCCCOc5cc6c(cc5OC)C(=O)N5C=C(c7ccc(N)cc7)C[C@@]5(C)C=N6)cc4N=C[C@]3(C)C2)cc1 [PBD1]	–	–	–	–	–	–	–	–	0.00149 ng/mL (≈ 0.00198 nM)	0.0028 ng/mL (≈ 0.00371 nM)	0.447 ng/mL	0.00387 ng/mL	0.00547 ng/mL (≈ 0.00725 nM)	0.0126 ng/mL (≈ 0.0167 nM)	0.00208 ng/mL (≈ 0.00276 nM)	0.66 ng/mL
COc1cc2c(cc1OCCCOc1cc3c(cc1OC)C(=O)N1Cc4ccccc4CC1C=N3)N=CC1Cc3ccccc3CN1C2=O (stereo not drawn) [CLT-D201]	–	–	–	–	–	–	–	–	0.014 ng/mL (≈ 0.0213 nM)	0.002 ng/mL (≈ 0.00305 nM)	1.29 ng/mL	0.0404 ng/mL	0.0211 ng/mL (≈ 0.0321 nM)	0.0291 ng/mL (≈ 0.0443 nM)	0.00823 ng/mL (≈ 0.0125 nM)	2.45 ng/mL
